Patent publication US6448273B1, “Orally active iron (III) chelators” (BTG International Limited, priority 1997, dated 2002)
Structures can show the parent of a compound that is named as a salt. Where two headings read alike, the source gives them in different places.

Legend:
[1] = Distribution coefficient DpH7.4 (Kpart), octanol/MOPS pH 7.4; type: physicochemical
From the text: The requirements for orally active chelators are set out in Table 4 of Hider et al as (i) good absorption from tile gastrointestinal tract, (ii) efficient liver extraction, (iii) poor entry into peripheral cells such as thymus, muscle, heart and bone marrow and (iv) poor ability to penetrate the blood-brain barrier and maternal/placental barriers.

[2] = pM for Iron III (affinity for iron as Fe III); type: physicochemical; conditions: negative log ferric ion concentration; total iron 10^-6 M, ligand 10^-5 M
From the text: The present inventors now have provided a group of 3-hydroxypyridin-4-one iron chelators having improved properties as compared to the prior art as assessed against the criteria set out above. […] Preferred compounds have efficiency of iron mobilisation of in excess of 52% when given orally to rats. […]

[3] = Iron (III) complex stability constant Logβ3; type: physicochemical
[4] = Iron III Mobilisation Efficacy Assay in Rat: Oral Administration; type: in vivo; conditions: for Efficacy: iron mobilisation less control
Protocol: Control rats were given an equivalent volume of water. The rats were placed in individual metabolic cages and their urine and faeces collected. One hour after the administration they were allowed access to food, with no restriction on water being made throughout the study period. The investigation was terminated 24 hours after the ^59Fe ferritin administration when rats were sacrificed and their livers and gastrointestinal tracts, including all contents including faeces, were removed for gamma counting.

pKa of the ligand = type: physicochemical
[5] = in vivo; cited from earlier work
[6] = cited from earlier work
[7] = method marked (p), first pKa, read-out: pKa, first value (p)
[8] = method marked (s), first pKa, read-out: pKa, first value (s)
[9] = method marked (p), second pKa, read-out: pKa, second value (p)
[10] = method marked (s), second pKa, read-out: pKa, second value (s)

## CCC(O)c1c(O)c(=O)cc(C)n1C (stereo not drawn) [CP374, 1,6-Dimethyl-2-(1-hydroxypropyl)-3-hydroxy-pyridin-4(1H)-one hydrochloride]
[1]
  DpH 7.4: 0.73
[2]
  pMpH 7.45: 20.95
[3]
  Logβ3: 35.03
[4]; 150 μmol/kg
  Iron Mobilisation: 34.0 ± 4.3%
  Efficacy: 30.1%
[4]; 450 μmol/kg
  Iron Mobilisation: 60.4 ± 15.6%
  Efficacy: 56.5%
pKa of the ligand; [7]
  pKa: 2.76
pKa of the ligand; [8]
  pKa: 2.78
pKa of the ligand; method marked (s), second pKa
  pKa, second value (s): 8.98

## Cc1c(O)c(=O)ccn1C [CP20, reference compound]
[1]
  DpH 7.4: 0.17
[5]
  crossing of placenta and blood brain barrier: able to cross the placenta and blood brain barrier
  phase II metabolism: rapidly inactivated by phase II metabolism
[6]
  effectiveness in man: effective in man
[2]
  pMpH 7.45: 19.4
[3]
  Logβ3: 36.3
[4]; 150 μmol/kg
  Iron Mobilisation: 6.3 ± 2.1%
  Efficacy: 2.4%
[4]; 300 μmol/kg
  Iron Mobilisation: 9.2 ± 2.2%
  Efficacy: 5.4%
[4]; 450 μmol/kg
  Iron Mobilisation: 13.4 ± 5.2%
  Efficacy: 9.5%
pKa of the ligand; method marked (s), first pKa
  pKa, first value (s): 3.56
pKa of the ligand; method marked (s), second pKa
  pKa, second value (s): 9.64

## CCc1c(O)c(=O)ccn1CC [CP94, 1,2-diethyl-3-hydroxypyridin-4-one, reference compound]
[1]
  DpH 7.4: 1.79
[5]
  crossing of placenta and blood brain barrier: able to cross the placenta and blood brain barrier
  phase II metabolism: rapidly inactivated by phase II metabolism
[6]
  effectiveness in man: effective in man
[2]
  pMpH 7.45: 19.7
[3]
  Logβ3: 36.7
[4]; 150 μmol/kg
  Iron Mobilisation: 16.5 ± 6.2%
  Efficacy: 12.6%
[4]; 300 μmol/kg
  Iron Mobilisation: 35.7 ± 4.4%
  Efficacy: 31.8%
[4]; 450 μmol/kg
  Iron Mobilisation: 59.7 ± 10.9%
  Efficacy: 55.8%

## CNC(=O)c1c(O)c(=O)cc(C)n1C [CP502, 1,6-Dimethyl-3-hydroxy-4(1H)-pyridinone-2-carboxy-(N-methyl)-amide hydrochloride]
[1]
  DpH 7.4: 0.04
[2]
  pMpH 7.45: 23.42
[3]
  Logβ3: 35.78
pKa of the ligand; [7]
  pKa: 2.83
pKa of the ligand; [9]
  pKa: 8.38
pKa of the ligand; [8]
  pKa: 2.64
pKa of the ligand; [10]
  pKa: 8.36

## Cc1cc(=O)c(O)c(CO)n1C [CP360, 1,6-Dimethyl-2-hydroxymethyl-3-hydroxy-pyridin-4(1H)-one hydrochloride]
[1]
  DpH 7.4: 0.098
[2]
  pMpH 7.45: 20.43
[3]
  Logβ3: 35.51
pKa of the ligand; method marked (s), first pKa
  pKa, first value (s): 3.37
pKa of the ligand; method marked (s), second pKa
  pKa, second value (s): 9.42

## O=c1ccn(CCCO)c(CO)c1O [CP366, 1-(3-hydroxypropyl)-2-hydroxymethyl-3-hydroxy-pyridin-4(1H)-one]
[1]
  DpH 7.4: 0.056
other
  melting point: 138 to 139 °C
[2]
  pMpH 7.45: 20.69
[3]
  Logβ3: 35.25
pKa of the ligand; method marked (s), first pKa
  pKa, first value (s): 2.87
pKa of the ligand; method marked (s), second pKa
  pKa, second value (s): 9.14

## CC(O)c1c(O)c(=O)ccn1CCCO (stereo not drawn) [CP372, 1-(3-hydroxypropyl)-2-(1-hydroxyethyl)-3-hydroxy-pyridin-4(1H)-one hydrochloride]
[1]
  DpH 7.4: 0.075
[2]
  pMpH 7.45: 21.48
[3]
  Logβ3: 34.67
pKa of the ligand; method marked (s), first pKa
  pKa, first value (s): 2.96
pKa of the ligand; method marked (s), second pKa
  pKa, second value (s): 8.69

## Cc1cc(=O)c(O)c(C(C)O)n1C (stereo not drawn) [CP361, 1,6-Dimethyl-2-(1-hydroxyethyl)-3-hydroxy-pyridin-4(1H)-one hydrochloride]
[1]
  DpH 7.4: 0.25
[2]
  pMpH 7.45: 21.47
[3]
  Logβ3: 3.52
pKa of the ligand; method marked (s), first pKa
  pKa, first value (s): 3.55
pKa of the ligand; method marked (s), second pKa
  pKa, second value (s): 8.97

## COCc1cc(=O)c(O)c(COC)n1C [CP388, 2,6-Dimethoxymethyl-1-methyl-3-hydroxypyridin-4(1H)-one hydrochloride]
[1]
  DpH 7.4: 0.40
[2]
  pMpH 7.45: 21.1
[3]
  Logβ3: 34.5
pKa of the ligand; [7]
  pKa: 2.93
pKa of the ligand; [9]
  pKa: 8.87
pKa of the ligand; [8]
  pKa: 2.73
pKa of the ligand; [10]
  pKa: 8.77

## CCn1c(C)cc(=O)c(O)c1CO [CP369, 1-Ethyl-2-hydroxymethyl-3-hydroxy-6-methyl-pyridin-4(1H)-one hydrochloride]
[1]
  DpH 7.4: 0.223
[2]
  pMpH 7.45: 20.35
[3]
  Logβ3: 35.6
pKa of the ligand; method marked (s), first pKa
  pKa, first value (s): 3.28
pKa of the ligand; method marked (s), second pKa
  pKa, second value (s): 9.38

## Cn1ccc(=O)c(O)c1CO [CP364, 1-Methyl-2-hydroxymethyl-3-hydroxy-pyridin-4(1H)-one hydrochloride]
[1]
  DpH 7.4: 0.048
[2]
  pMpH 7.45: 20.75
[3]
  Logβ3: 35.3
pKa of the ligand; [7]
  pKa: 3.13
pKa of the ligand; [9]
  pKa: 9.22
pKa of the ligand; method marked (s), first pKa
  pKa, first value (s): 2.93
pKa of the ligand; [10]
  pKa: 9.12

## COCCNC(=O)c1c(O)c(=O)cc(C)n1C [CP506, 1,6-Dimethyl-3-hydroxy-4(1H)-pyridinone-2-carboxy-(N-2′-methoxyethyl)-amide hydrochloride]
[1]
  DpH 7.4: 0.04
[2]
  pMpH 7.45: 22.57
[3]
  Logβ3: 34.88
pKa of the ligand; [7]
  pKa: 2.62
pKa of the ligand; [9]
  pKa: 8.34
pKa of the ligand; [8]
  pKa: 2.5
pKa of the ligand; [10]
  pKa: 8.35
